Results: publication PMC7005646, “Overcoming resistance to anabolic SARM therapy in experimental cancer cachexia with an HDAC inhibitor” (EMBO Molecular Medicine, 2020)

Tests used:
C‐26 cells = experiment: Cell viability assay (CCK‐8); type: cell-based, mouse; conditions: up to 10 µM, 48 hours
Protocol: Cell viability assays were conducted using the CCK‐8 kit (Dojindo Molecular Technologies, Inc; Kumamoto, Japan). Briefly, 1,250 cells per well were plated on 96‐well plates and allowed to adhere overnight.

C‐26 tumor‐bearing mice [1] = experiment: Combined androgen and AR‐42 study (Study 4), C‐26 model; type: in vivo, mouse
Protocol: These studies were performed as previously described (Tseng et al, 2015a) with modifications. Tumors were established in the right flank of CD2F1 mice by subcutaneous injection of C‐26 cells (0.5 × 10^6 cells in 0.1 ml). […] TFM‐4AS‐1 (a potent experimental SARM), DHT, and vehicles were administered by subcutaneous injection.
Similar to Study 2, the tumor‐free control group was maintained at six animals, whereas 10 animals were included in each of the 6 tumor‐bearing groups. Six days after cell injection, animals with palpable tumors were treated once daily for 13 days with vehicles for AR‐42 and TFM‐4AS‐1/DHT (n = 9), AR‐42 (10 mg/kg; TFM‐4AS‐1/DHT vehicle; n = 10), TFM‐4AS‐1 (10 mg/kg; AR‐42 vehicle; n = 9), DHT (3 mg/kg; AR‐42 vehicle; n = 10), the combination of AR‐42 and TFM‐4AS‐1 (10 mg/kg each; n = 9), or the combination of AR‐42 (10 mg/kg) and DHT (3 mg/kg; n = 10). Grip strength was measured, and tissues were collected as in the previous studies.
Forelimb grip strength was measured using Bio‐GS3 Grip Strength Test Meter (Forceleader DBA Bioseb, Pinellas Park, FL). Each mouse was held by the base of its tail and lowered over the apparatus until its forepaws grasped the metal pull bar. […] The force applied to the bar at the moment of release was recorded as the peak force. […]

[2] = GTx‐024 plasma pharmacokinetics, LLC tumor‐bearing C57BL/6NHsd mice; type: in vivo, mouse
Protocol: Blood was collected by cardiac puncture into heparinized tubes (BD Microtainer, Becton, Dickinson and Company, Franklin Lakes, NJ, USA) and immediately centrifuged at room temperature for 3 min at 4,200 RCF. Plasma was removed and placed on dry ice prior to storage at −80°C until analysis. Bioanalytical analyses were conducted as previously described (Cheng et al, 2016) by Charles River Laboratories, Inc. (Wilmington, MA, USA). Non‐compartmental analysis was performed using the PKNCA package in R version 3.6.0.

LLC tumor‐bearing mice = experiment: AR‐42/GTx‐024 combination study in the LLC cachexia model (Study 5); type: in vivo, mouse
Protocol: This study was performed as previously described (Tseng et al, 2015a) with modifications. Tumors were established in the right hindlimb of male C57BL/6NHsd mice by intramuscular injection of LLC cells (0.5 × 10^6 cells in 0.05 ml). Similar to Study 3, the tumor‐free control group was maintained at six animals, whereas 12 animals were included in each of the tumor‐bearing groups. […] Grip strength, body weight, and food consumption were measured, and tissues were collected as in the previous C‐26 studies.

[3] = male rats, 0.5 mpk; ref Xenobiotica. 2013 Nov;43(11):993-1009; cited from earlier work
pSTAT3 (Y705) = experiment: pSTAT3/tSTAT3 Western blot of gastrocnemius muscle; type: in vivo, mouse
Protocol: Western blots from all studies were performed on gastrocnemius muscle from representative animals lysed by Nonidet P‐40 isotonic lysis buffer [50 mM Tris–HCl, pH 7.5, 120 mM NaCl, 1% (v/v) Nonidet P‐40, 1 mM EDTA, 50 mM NaF, 40 mM glycerophosphate, and […] each of protease inhibitors (aprotinin, pepstatin, and leupeptin)]. Equivalent amounts of protein from each sample, as determined by the Bradford assay (Bio‐Rad), were resolved by SDS–PAGE and then transferred (semi‐dry) onto Immobilon nitrocellulose membranes (Millipore, Bellerica, MA). Membranes were washed twice with TBST [Tris‐buffered saline (TBS) containing 0.1% Tween‐20], blocked with 5% non‐fat milk in TBST for 1 h, and then washed an additional three times. Membranes were incubated with specific primary antibody in TBST (1:1,000) at 4°C overnight, washed three times (TBST), and then incubated with appropriate goat anti‐rabbit or anti‐mouse IgG–horseradish peroxidase‐conjugated secondary antibodies (1:5,000) at room temperature (1 h). Following additional washes (TBST), immunoblots were visualized as appropriate by ECL chemiluminescence (Amersham Biosciences, Little Chalfont, United Kingdom) or Duration HRP Chemiluminescence (Alkali Scientific, Florida, United States). Primary antibodies: phospho‐STAT3 (Tyr705) (D3A7) XP® rabbit mAb #9145, STAT3 (124H6) mouse mAb #9139 (Cell Signaling Technology, Danvers, MA); α‐tubulin (B‐7), sc‐5286 (Santa Cruz Biotechnologies, Santa Cruz, CA); androgen receptor (EP670Y), ab52615 (Abcam, Cambridge, MA) and GAPDH (6C5), sc‐32233 (Santa Cruz Biotechnologies, Santa Cruz, CA).

C‐26 tumor‐bearing mice [4] = experiment: Initial AR‐42/GTx‐024 combination study (Study 1), male C‐26 tumor‐bearing mice; type: in vivo, mouse
[5] = test system: serum‐luteinizing hormone; experiment: Serum luteinizing hormone radioimmunoassay, Study 1; type: in vivo, mouse; conditions: Study 1, day 18, 15 mg/kg, C‐26 tumor‐bearing mice
Protocol: Luteinizing hormone was measured in serum by a two‐site sandwich radioimmunoassay performed by the Ligand Assay and Analysis Core at the Center for Research in Reproduction, University of Virginia School of Medicine (Charlottesville, VA). Serum was isolated by centrifugation (2,000 g, 15 min) from whole blood samples collected from mice immediately post‐mortem, and then stored at −80°C until shipment on dry ice.

serum cytokines = experiment: Serum cytokine panel (multiplex), terminal samples from Study 2; type: in vivo, mouse; conditions: GTx‐024 15 mg/kg, mean ± SD
Protocol: This confirmatory study was performed exactly as Study 1 with expanded animal numbers. Tumor‐free control groups were maintained at 6 animals each, whereas 10 animals were included in each of the tumor‐bearing groups. […] Grip strength was measured on study days 0 (baseline) and 16. Due to rapid model progression, this study was terminated on day 17 after only 12 days of treatment.
Serum cytokine panel analyses were performed by a commercial vendor (Eve Technologies, Calgary, Canada) as previously described (Tseng et al, 2015a). Serum interleukin‐6 (IL‐6) was measured using a commercial ELISA kit (R&D Systems, Minneapolis, MN, USA) according to the manufacturer's instructions.

[6] = male, C57BL/6NHsd, mouse, single 15 mg/kg oral dose, plasma
[7] = Study 1, male, day 18, GTx‐024 15 mg/kg, AR‐42 10 mg/kg, or both
[8] = C‐26 Tumor‐bearing, AR‐42 10 mg/kg, or both

C[C@]12CCC(=O)C[C@@H]1CC[C@@H]1[C@@H]2CC[C@]2(C)[C@@H](O)CC[C@@H]12 [DHT, dihydrotestosterone]
direct effects on C‐26 cell viability (C‐26 cells): did not detect direct effects
C‐26 tumor growth (C‐26 tumor‐bearing mice [1]; Study 4, DHT alone 3 mg/kg, after 8 days of administration): tumor growth was significantly suppressed

C[C@](O)(COc1ccc(C#N)cc1)C(=O)Nc1ccc(C#N)c(C(F)(F)F)c1 [GTx‐024, (S)‐N‐(4‐cyano‐3‐(trifluoromethyl)phenyl)‐3‐(4‐cyanophenoxy)‐2‐hydroxy‐2‐methylpropanamide]
direct effects on C‐26 cell viability (C‐26 cells): did not detect differences in the direct effects
projected mouse exposure at 0.5 mpk over rat exposure at 0.5 mpk ([2]; 28.8 vs 4.3 ug*hr/mL): 6.7 fold
exposure projected for 0.5 mg/kg ([2]; 30‐fold dose reduction from 15 mg/kg, mouse): ~ 28.8 μg*h/ml
AUC(0-inf) [2, 6]: 863 µg·h/mL
AUC(0-t) [2, 6]: 721 µg·h/mL
Cmax [2, 6]: 25800 ng/mL
half-life [2, 6]: 18.1 h
LLC tumor growth (LLC tumor‐bearing mice; Study 5, 15 mg/kg daily oral): stimulated LLC tumor growth
LLC tumor growth (LLC tumor‐bearing mice; repeat of Study 5, 0.5 mg/kg daily oral): did not promote LLC tumor growth
response of body weight and skeletal muscle mass loss (LLC tumor‐bearing mice; repeat of Study 5, 10 mg/kg AR‐42, 0.5 mg/kg GTx‐024, or both): did not respond
AUCinf [3]: approximately 4.3 ug*hr/mL
pSTAT3 in gastrocnemius (pSTAT3 (Y705); female C‐26 tumor‐bearing mice, Study 3): reduced levels of pSTAT3 activation
pSTAT3 in gastrocnemius (pSTAT3 (Y705); male C‐26 tumor‐bearing mice, Study 1): no apparent effect
body weight in tumor‐free controls (C‐26 tumor‐bearing mice [4]; Study 1, 15 mg/kg daily oral): did not cause body weight loss
terminal body weight corrected for tumor mass (C‐26 tumor‐bearing mice [4]; Study 1, male, day 18, 13 days daily oral, GTx‐024 15 mg/kg, AR‐42 10 mg/kg, or both): 79.0 ± 11.2 % of tumor‐free controls
terminal gastrocnemius mass (C‐26 tumor‐bearing mice [4]; [7]): 84 ± 11.3 % of tumor‐free controls
terminal quadriceps mass (C‐26 tumor‐bearing mice [4]; [7]): 80.0 ± 9.1 % of tumor‐free controls
serum‐luteinizing hormone [5]: suppressed serum‐luteinizing hormone
GM‐CSF, serum (serum cytokines; [8]): 17.35 ± 4.33 pg/mL
G‐CSF, serum (serum cytokines; [8]): 2446.63 ± 1625.70 pg/mL
IL‐6, serum (serum cytokines; [8]): 397.54 ± 341.43 pg/mL
IL‐17, serum (serum cytokines; [8]): 1.75 ± 1.28 pg/mL
IP‐10, serum (serum cytokines; [8]): 154.76 ± 17.98 pg/mL
KC, serum (serum cytokines; [8]): 288.89 ± 154.46 pg/mL
LIF, serum (serum cytokines; [8]): 45.26 ± 21.57 pg/mL
LIX, serum (serum cytokines; [8]): 5234.39 ± 4771.34 pg/mL
M‐CSF, serum (serum cytokines; [8]): 22.23 ± 9.45 pg/mL
GM‐CSF, serum (serum cytokines; Tumor‐free): 13.27 ± 4.62 pg/mL
G‐CSF, serum (serum cytokines; Tumor‐free): 338.39 ± 71.70 pg/mL
IL‐6, serum (serum cytokines; Tumor‐free): 2.45 ± 1.31 pg/mL
IL‐17, serum (serum cytokines; Tumor‐free): 5.01 ± 1.18 pg/mL
IP‐10, serum (serum cytokines; Tumor‐free): 145.68 ± 48.83 pg/mL
KC, serum (serum cytokines; Tumor‐free): 90.02 ± 17.69 pg/mL
LIF, serum (serum cytokines; Tumor‐free): 2.50 ± 2.34 pg/mL
LIX, serum (serum cytokines; Tumor‐free): 1316.67 ± 1662.66 pg/mL
M‐CSF, serum (serum cytokines; Tumor‐free): 27.23 ± 10.09 pg/mL

CN1C(=O)C=C[C@]2(C)[C@H]3CC[C@]4(C)[C@@H](C(=O)Nc5ccccc5C(F)(F)F)CC[C@H]4[C@@H]3CC[C@@H]12 [TFM‐4AS‐1]
sparing of body weight or mass of gastrocnemius or quadriceps (C‐26 tumor‐bearing mice [1]; Study 4, monotherapy 10 mg/kg subcutaneous): did not spare body weight
